Tests used:
[1] = pH of 1 % solution in water; type: physicochemical
[2] = Release test of tablets (Eur. Ph. 2.9.3, blade stirrer, artificial gastric buffer without pepsin); type: physicochemical; conditions: tablets containing the salt; compared with tablets containing other known salts
Method: The release test was carried out according to Eur. Ph. 2.9.3 with a blade stirrer (100 rpm) in 1000 mL of artificial gastric buffer without pepsin (Eur. […] The title is carried out by drawing 10 mL of medium, filtering on paper then evaluating the acid content by the spectrophotometer at the wavelength of 330 nm versus standard. The tablet hardness (N) is evaluated by a Schleuninger 6D durometer. The compression force was settled to obtain three intervals of tablet hardness: 40-90 N; 90-120Ne> […]. Table 2 : release of (R) α-lipoic acid tablet

Powder apparent density = type: physicochemical; conditions: in g/mL
From the text: As solvents, 1-4 carbon atom aliphatic alcohols are used, having linear or branched chain, pure or denaturated by usual denaturants, optionally in a mixture with water or among them or with the mother liquors coming from a previous production cycle that used the same raw materials. The use of ketones, like acetone, as such, (Ex.7, 9) or in a mixture with some of the above mentioned alcohols (Ex.11, 12), produces an amorphous precipitate not suitable to be utilized for the direct compression because of the powder very low density. For industrial purpose a powder having low density (<0,2 g/mL) requires an additional operation (compactation / dry granulation / humid granulation) to produce tablets.

[3] = Absorption and bioavailability of tablets; type: in vivo; conditions: formulated in tablet; compared with the corresponding tromethamine salt and lipoic acid as a racemate at equivalent doses

Row | pH 1 % in water [1] | dissolution profile [2] | Powder apparent density (Powder apparent density) | absorption and bioavailability [3] | SMILES
1 | 7.2 |  |  |  | O=C(O)CCCC[C@@H]1CCSS1 [Ex. 12, Piperazine (R) α-lipoate (1:1)]
2 | 5.5 | dissolution profile better | 0.5-0.6 | better absorption and bioavailability | O=C(O)CCCC[C@@H]1CCSS1 [Ex. 8, Piperazine (R) α-lipoato (2:1)]

The remaining lines, values behind:

Row | SMILES | pH 1 % in water [1] | dissolution profile [2] | Powder apparent density (Powder apparent density) | absorption and bioavailability [3]
3 | O=C(O)CCCC[C@@H]1CCSS1 [Ex. 6, Cystamine (R) α-lipoate] | 6.6 | dissolution profile better |  | 
4 | O=C(O)CCCC[C@@H]1CCSS1 [Ex. 1, Trometamol (R) α-lipoate, reference compound] | 6.6 |  | 0.5-0.7 | 
5 | O=C(O)CCCC[C@@H]1CCSS1 [Ex. 7, Diazobicyclo [2,2,2] octane (R) α-lipoate] | 5.2 | dissolution profile better | 0.4-0.6 | 

— patent EP2386552A1, “Process for the preparation of (R) a-lipoic acid salts, their formulation and use in pharmaceutical compositions, in form of tablets containing them” (priority 2010, dated 2011)
